Measured values: the NIST ThermoML archive (doi:10.1016/j.jct.2019.03.008)
Numbers after ± are expanded uncertainties.

Legend:
[1] = Boiling temperature at pressure P; conditions: Liquid, DSC
[2] = Crystal; DTA

Oc1ccccc1O [1,2-benzenediol]
[1]
Conditions | Boiling temperature at pressure P [°C]
2.95 kPa | 139.1 ± 1.5
3.93 kPa | 145.5 ± 1.8
4.93 kPa | 150.7 ± 2

Oc1cccc(O)c1 [1,3-benzenediol]
[1]
Conditions | Boiling temperature at pressure P [°C]
2.95 kPa | 171.6 ± 1.6
3.93 kPa | 178.2 ± 1.9
4.93 kPa | 183.7 ± 2.1

CCCCCCc1ccc(O)cc1O [1,3-dihydroxy-4-hexylbenzene]
Conditions | Normal melting temperature [°C]
[2] | 67.0 ± 0.4

[1]
Conditions | Boiling temperature at pressure P [°C]
1.95 kPa | 201.0 ± 1.6
2.95 kPa | 211.0 ± 2.2
3.87 kPa | 218.7 ± 1.9
5.42 kPa | 227.1 ± 2
7.89 kPa | 238 ± 2.4
9.9 kPa | 244.6 ± 2.6
19.83 kPa | 267 ± 2.8
29.78 kPa | 281.4 ± 2.6
49.68 kPa | 301.2 ± 3.3
69.58 kPa | 315.0 ± 3.6
79.52 kPa | 321.4 ± 3.4
100.93 kPa | 332.4 ± 4
198.33 kPa | 364.4 ± 5
223.29 kPa | 371.5 ± 4.5
250.21 kPa | 378 ± 4.6

CCCc1c(O)cccc1O [2-propylresorcinol]
Conditions | Normal melting temperature [°C]
[2] | 104.8 ± 0.4

[1]
Conditions | Boiling temperature at pressure P [°C]
9.92 kPa | 197.5 ± 1.6
19.83 kPa | 218.2 ± 2.6
29.79 kPa | 231.6 ± 2.4
49.69 kPa | 250.2 ± 3.1
69.61 kPa | 263.2 ± 3
98.91 kPa | 278.0 ± 2.7
198.31 kPa | 309.6 ± 4.2
299.37 kPa | 332.2 ± 4.1
400.46 kPa | 345.8 ± 4.1

CCc1ccc(O)cc1O [4-ethylresorcinol]
Conditions | Normal melting temperature [°C]
[2] | 97.2 ± 0.4

[1]
Conditions | Boiling temperature at pressure P [°C]
9.92 kPa | 207.4 ± 1.6
19.87 kPa | 228.2 ± 2.6
29.79 kPa | 241.4 ± 2.4
49.73 kPa | 259.6 ± 3
69.64 kPa | 272.6 ± 3
98.43 kPa | 287.0 ± 2.6
198.31 kPa | 318.6 ± 4
299.37 kPa | 339.8 ± 4.3
400.09 kPa | 356.2 ± 5.1
